Measurements taken from patent publication US10799442B2, “Compounds useful in the treatment and/or care of the skin, hair, nails, and/or mucous membranes” (LUBRIZOL ADVANCED MATERIALS, INC., priority 2015, dated 2020).

Experiments:
[1] = tested on: KLF4; test: Modulation of stem cell markers in HEKa, Real Time PCR Arrays (KLF4 mRNA); assay type: cell-based, Human; conditions: 48 hours
Protocol: (§1) The candidate compound is evaluated for the modulation of several stem cell markers, those transcription factors regulated by miRNA145 (SOX2, OCT4, KLF4 and MYC). Gene expression profiles are analyzed by Real Time PCR Arrays using a 96-well panel for use with SYBR® Green (BioRad) to detect mRNA expression levels of stem cell markers plus three housekeeping genes, and five controls, in Human Epidermal Keratinocytes from adult (HEKa) (Cascade Biologics).
(§2) HEKa cells are seeded at 6.0×10^5 cells/well in 6-well plates and incubated in culture medium, Epilife with defined Growth Supplement (EDGS) (Cascade Biologics), for 24 hours at 37° C. in a water-saturated atmosphere of 95% air and 5% CO2. After 24 hours, the medium is removed and the cells are incubated with the synthetic peptide DD14024 at several concentrations in a culture medium. Cells are incubated with culture medium only and these provide the basal conditions. After 48 hours of treatment at 37° C. in a CO2 incubator, the cells are lysed directly in the wells, and RNA is purified following the protocol described on the RNeasy Mini kit (Qiagen) according to the manufacturer's protocol. After RNA elution, quantification and analysis of purity of RNA samples are performed with a biophotometer (Eppendorf). For each sample, 2 μg of high quality RNA is retrotranscribed with iScript Advanced (BioRad) in a final volume of 20 μl. The complete reaction mix is incubated in a thermal cycler (Eppendorf) at 42° C. for 30 minutes and the reaction is stopped at 85° C. for 5 minutes (?). Complementary DNA is amplified by qPCR in a real-time PCR thermocycler (BioRad) using SYBR Green Supermix (BioRad) in the 96-well panel for use with SYBR® Green (BioRad). SYBR Green binds to double-stranded DNA molecules and emits fluorescence which is quantified; the fluorescence intensity is proportional to the amount of the product in the PCR reaction. […] Fold change relative to the expression of the sample genes and reference genes is calculated using normalized expression (ΔΔ(Ct)) method using CFX Manager Software (BioRad). […]

[2] = tested on: MYC; test: Modulation of stem cell markers in HEKa, Real Time PCR Arrays (MYC mRNA); assay type: cell-based, Human; conditions: 48 hours
Protocol: as §1, §2

[3] = tested on: Keratin 14; test: Keratin expression in reconstructed human epidermal tissue (RHE), immunohistochemistry (Keratin 14); assay type: cell-based; conditions: Keratin 14 immunofluorescence, 10 μg/ml, 48 hours
From the text: The human epidermis continuously renews itself by a process of proliferation and differentiation of keratinocytes. Basal epidermal stem cells proliferate and the differentiation process begins above the basal layer, whereby the differentiating keratinocytes slowly move outward from the basal membrane, migrate through the epidermis, and undergo terminal differentiation culminating in fully differentiated dead cells on the surface. The process is a dynamic flux so that surface cells are continuously sloughed and replaced by inner cells differentiating and moving outward. […] To study the ability of the peptides of the invention to recover the basal keratinocyte state, the expression of Keratins 10 and 14 is evaluated by immunohistochemistry in a three-dimensional culture system, Reconstructed Human Epidermal Tissue (RHE), that reproduces in vitro the histological organization of human epidermis in situ. […]
The expression of Keratins 10 and 14 is evaluated by immunohistochemistry with a specific primary antibody and a fluorescently labelled secondary antibody. […] At the end of the incubation, slides are washed with 0.2% solution of Tween 20 in PBS and are incubated with Alexa Fluor® 488 Goat anti-mouse IgG (H+L) secondary antibody (Invitrogen, green fluorescence emission dye) for 1 hour at room temperature in a dark humidified chamber. […]

Ac-QEMRMQ-OH [DD14024, Ac-Gln-Glu-Met-Arg-Met-Gln-OH]
Fold induction respect to basal conditions ([1]; 0.001 mg/ml): 1.66 ± 0.18 | Fold induction respect to basal conditions ([1]; 0.005 mg/ml): 2.42 ± 0.50 | Fold induction respect to basal conditions ([1]; 0.01 mg/ml): 1.71 ± 0.40 | Fold induction respect to basal conditions ([2]; 0.001 mg/ml): 0.91 ± 0.05 | Fold induction respect to basal conditions ([2]; 0.005 mg/ml): 0.65 ± 0.08 | Fold induction respect to basal conditions ([2]; 0.01 mg/ml): 0.65 ± 0.07 | Fold induction respect to basal conditions (%) [3]: 425.83%
